Source: patent US9963467B2, “Boronic acid derivatives and therapeutic uses thereof” (Rempex Pharmaceuticals, Inc., priority 2014, dated 2018)

Assays:
[1] = test system: KP1010 (SHV-12); assay: Tigemonam potentiation (MPC@4), KP1010; format: cell-based
[2] = test system: ECL1002; assay: Aztreonam potentiation (MPC@4), ECL1002; format: cell-based; settings: BLI with aztreonam at 4 μg/mL
[3] = test system: ec302 (TEM-10); assay: Aztreonam potentiation (MPC@4), ec302; format: cell-based; settings: BLI with aztreonam at 4 μg/mL
[4] = test system: KP1005 (CTX-M-14); assay: Tigemonam potentiation (MPC@4), KP1005; format: cell-based; settings: BLI with tigemonam at 4 μg/mL
[5] = target: OXA-48 (Klebsiella pneumoniae, UniProt Q6XEC0); assay: Ki, nitrocefin cleavage by purified enzyme, OXA-48; format: biochemical; settings: nitrocefin reporter substrate; read-out: Ki (OXA-48, NCF)
Method: (§1) Purified enzymes were mixed with various concentrations of inhibitors in reaction buffer and incubated for 10 min at room temperature. Nitrocefin was added and substrate cleavage profiles were recorded at 490 nm every 10 sec for 10 min.

[6] = test system: ec308 (SHV-5); assay: Tigemonam potentiation (MPC@4), ec308; format: cell-based
[7] = target: P99 (Enterobacter cloacae, UniProt P05364); assay: Ki, nitrocefin cleavage by purified enzyme, P99; format: biochemical; settings: nitrocefin reporter substrate; read-out: Ki (P99, NCF)
Method: as §1

[8] = Monomer content of pH adjusted aqueous solutions (LC-UV); format: physicochemical; settings: 1 mg/mL aqueous salt solution, pH adjusted to 7.6 to 8, LC-UV
Method: Boronic acid containing compounds are known to undergo oligomerization. The presence of oligomers can greatly complicate drug development, as they represent new chemical species whose content must be controlled and qualified by testing in toxoicology studies. The monomer content of compounds was evaluated by adjusting aqueous solutions to physiological pH at various concentrations. The monomer content of pH adjusted solutions was measured using LC-UV. Test compounds were weighed out into a 1.5 mL Eppendorf tube. A solution of water was prepared in 1.00 mg/mL, 10.0 mg/mL or 100 mg/mL concentrations of the compound based on active fraction. A volume 20 uL was subtracted to allow room for addition of acid or base to adjust pH. The solution pH was measured. The pH was then adjusted through addition of acid or base as necessary until the reading was in the 7.6 to 8 range. A final pH measurement was made after ensuring all the compound was in solution. The solution was injected onto LC-UV in 0.1 uL to 5 uL volume within less than half an hour after the time the sample was prepared. Elution was done using 0.1% TFA in water for mobile phase A and 0.085% TFA in methanol for mobile phase B on an Excel ACE 5 Super C18 2.1×100 mm column at 0.6 ml/min flow rate with 9 min gradient, 3.9 minute hold at 90% B and 18 minute run time. The absorption was measured at 220, 254 and 300 nm with a 4 nm bandwidth.

[9] = test system: EC1010 (CMY-6); assay: Tigemonam potentiation (MPC@4), EC1010; format: cell-based; settings: BLI with tigemonam at 4 μg/mL
[10] = test system: ECL1002; assay: Tigemonam potentiation (MPC@4), ECL1002; format: cell-based; settings: BLI with tigemonam at 4 μg/mL
[11] = test system: EC1010 (CMY-6); assay: organism not typed; format: cell-based
[12] = target: CTX-M-14 (Escherichia coli, UniProt Q9L5C7); assay: Ki, nitrocefin cleavage by purified enzyme, CTX-M-14; format: biochemical; settings: nitrocefin reporter substrate; read-out: Ki (CTX-M-14, NCF)
Method: as §1

[13] = target: SHV-12 (Klebsiella pneumoniae, UniProt P0AD64, E235K/G234S/L31Q); assay: Ki, nitrocefin cleavage by purified enzyme, SHV-12; format: biochemical; settings: nitrocefin reporter substrate; read-out: Ki (SHV-12, NCF)
Method: as §1

[14] = test system: KP1009 (CTX-M-15); assay: Tigemonam potentiation (MPC@4), KP1009; format: cell-based; settings: BLI with tigemonam at 4 μg/mL
[15] = test system: KP1086 (OXA-48); assay: Biapenem potentiation (MPC@1), KP1086; settings: BLI with biapenem at 1 μg/mL
[16] = test system: KP1004 (KPC-2); assay: Biapenem potentiation (MPC@1), KP1004; settings: BLI with biapenem at 1 μg/mL
[17] = test system: ec302 (TEM-10); assay: Tigemonam potentiation (MPC@4), ec302; format: cell-based
[18] = target: KPC-2 (Klebsiella pneumoniae, UniProt Q9F663); assay: Ki, nitrocefin cleavage by purified enzyme, KPC-2; format: biochemical; settings: nitrocefin reporter substrate; read-out: Ki (KPC-2, NCF)
Method: as §1

[19] = target: Pa AmpC (Pseudomonas aeruginosa, UniProt P24735); assay: Ki, nitrocefin cleavage by purified enzyme, Pa AmpC; format: biochemical; settings: nitrocefin reporter substrate; read-out: Ki (Pa AmpC, NCF)
Method: Ki values of inhibition of purified class A, C and D enzymes were determined spectrophotometrically using nitrocefin as reporter substrate. Purified enzymes were mixed with various concentrations of inhibitors in reaction buffer and incubated for 10 min at room temperature. Nitrocefin was added and substrate cleavage profiles were recorded at 490 nm every 10 sec for 10 min. These experiments confirmed that the described compounds are inhibitors with a broad-spectrum of activity towards various β-lactamases.

Sequence of SHV-12 (P0AD64 22-286 L31Q/G234S/E235K): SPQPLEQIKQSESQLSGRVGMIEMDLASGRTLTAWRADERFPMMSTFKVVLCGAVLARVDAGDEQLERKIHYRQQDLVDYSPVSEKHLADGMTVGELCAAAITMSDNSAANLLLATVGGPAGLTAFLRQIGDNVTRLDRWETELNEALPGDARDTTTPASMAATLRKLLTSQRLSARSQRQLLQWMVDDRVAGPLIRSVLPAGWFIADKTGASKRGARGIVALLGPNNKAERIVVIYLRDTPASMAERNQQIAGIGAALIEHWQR
Sequence of OXA-48 (Q6XEC0 23-265, looked up, species assumed): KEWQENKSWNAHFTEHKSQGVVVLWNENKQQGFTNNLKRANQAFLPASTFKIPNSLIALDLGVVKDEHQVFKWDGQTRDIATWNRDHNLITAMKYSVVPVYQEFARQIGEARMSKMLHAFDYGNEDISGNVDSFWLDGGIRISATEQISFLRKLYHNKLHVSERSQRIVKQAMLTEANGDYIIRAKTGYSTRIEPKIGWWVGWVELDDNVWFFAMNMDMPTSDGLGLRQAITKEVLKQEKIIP
Sequence of KPC-2 (Q9F663 25-293, looked up, species assumed): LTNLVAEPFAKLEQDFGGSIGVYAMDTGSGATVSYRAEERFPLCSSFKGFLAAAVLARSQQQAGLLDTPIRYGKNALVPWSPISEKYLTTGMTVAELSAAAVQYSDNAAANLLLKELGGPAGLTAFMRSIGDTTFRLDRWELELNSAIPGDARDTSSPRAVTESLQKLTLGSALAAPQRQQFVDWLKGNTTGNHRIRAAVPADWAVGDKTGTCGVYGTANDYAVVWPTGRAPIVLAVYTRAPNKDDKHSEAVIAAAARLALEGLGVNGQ
Sequence of CTX-M-14 (Q9L5C7 29-291): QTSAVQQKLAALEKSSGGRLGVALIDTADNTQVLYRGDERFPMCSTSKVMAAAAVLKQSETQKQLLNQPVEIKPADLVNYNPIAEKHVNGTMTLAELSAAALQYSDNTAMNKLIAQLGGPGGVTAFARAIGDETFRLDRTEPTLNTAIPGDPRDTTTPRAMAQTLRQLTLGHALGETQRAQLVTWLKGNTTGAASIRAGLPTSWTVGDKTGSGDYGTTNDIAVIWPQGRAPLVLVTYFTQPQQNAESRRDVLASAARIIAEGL
Sequence of P99 (P05364 21-381): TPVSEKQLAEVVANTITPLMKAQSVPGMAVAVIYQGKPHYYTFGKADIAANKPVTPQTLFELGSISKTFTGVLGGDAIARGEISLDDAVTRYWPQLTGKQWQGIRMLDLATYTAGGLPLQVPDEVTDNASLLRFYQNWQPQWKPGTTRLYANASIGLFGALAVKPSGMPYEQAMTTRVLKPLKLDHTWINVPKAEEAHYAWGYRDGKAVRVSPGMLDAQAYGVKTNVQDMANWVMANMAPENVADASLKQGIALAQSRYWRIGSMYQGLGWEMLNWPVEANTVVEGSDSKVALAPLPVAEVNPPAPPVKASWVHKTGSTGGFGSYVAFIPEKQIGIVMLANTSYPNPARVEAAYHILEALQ
Sequence of Pa AmpC (P24735 27-397): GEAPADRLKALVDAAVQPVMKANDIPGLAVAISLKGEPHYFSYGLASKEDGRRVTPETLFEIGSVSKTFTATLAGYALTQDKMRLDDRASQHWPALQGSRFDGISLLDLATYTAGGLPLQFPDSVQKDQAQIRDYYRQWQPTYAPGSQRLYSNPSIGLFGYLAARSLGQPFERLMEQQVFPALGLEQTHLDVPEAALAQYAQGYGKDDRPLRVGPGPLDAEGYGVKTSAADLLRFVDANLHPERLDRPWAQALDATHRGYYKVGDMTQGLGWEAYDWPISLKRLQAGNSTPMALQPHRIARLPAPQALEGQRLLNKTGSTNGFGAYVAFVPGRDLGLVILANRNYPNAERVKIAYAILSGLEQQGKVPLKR

SMILES	TIG MPC4 SHV-12 KP1010 [1]	AZT MPC4 ECL1002 [2]	AZT MPC4 TEM-10 ec302 [3]	TIG MPC4 CTX-M-14 KP1005 [4]	Ki [5] [µM]	TIG MPC4 SHV-5 ec308 [6]	Ki [7] [µM]	% Monomer in 1 mg/mL salt solution [8] [%]	TIG MPC4 CMY-6 EC1010 [9]	TIG MPC4 ECL1002 [10]	AZT MPC4 CMY-6 EC1010 [11]	Ki [12] [µM]	Ki [13] [µM]	TIG MPC4 CTX-M-15 KP1009 [14]	BPM MPC1 OXA-48 KP1086 [15]	BPM MPC1 KP1004 KPC-2 [16]	TIG MPC4 TEM-10 ec302 [17]	Ki [18] [µM]	Ki [19] [µM]
CSCC(=O)N[C@H]1Cc2ccc(SC)c(C(=O)O)c2OB1O [Compound 10, (R)-2-hydroxy-7-(methylthio)-3-(2-(methylthio)acetamido)-3,4-dihydro-2H-benzo[e][1,2]oxaborinine-8-carboxylic acid]	X (key: X: MIC of less than 1 μg/mL; Y: MIC of 1 μg/mL to 10 μg/mL; Z: MIC of greater than 10 μg/mL)	Y (MIC of 1 μg/mL to 10 μg/mL)	Y (MIC of 1 μg/mL to 10 μg/mL)	Y (MIC of 1 μg/mL to 10 μg/mL)	0.001 to 0.01	X (key: X: MIC of less than 1 μg/mL; Y: MIC of 1 μg/mL to 10 μg/mL; Z: MIC of greater than 10 μg/mL)	> 0.01	87.5	X (MIC of less than 1 μg/mL)	X (MIC of less than 1 μg/mL)	Y (key: X: MIC of less than 1 ng/mL; Y: MIC of 1 μg/mL to 10 μg/mL; Z: MIC of greater than 10 μg/mL)	< 0.001	< 0.001	X (MIC of less than 1 μg/mL)	Z (MIC of greater than 10 μg/mL)	X (MIC of less than 1 μg/mL)	Y (key: X: MIC of less than 1 ng/mL; Y: MIC of 1 μg/mL to 10 μg/mL; Z: MIC of greater than 10 μg/mL)	> 0.01	
CNC(=O)CC(=O)N[C@H]1Cc2ccc(F)c(C(=O)O)c2OB1O [Compound 7, (R)-7-fluoro-2-hydroxy-3-(3-(methylamino)-3-oxopropanamido)-3,4-dihydro-2H-benzo[e][1,2]oxaborinine-8-carboxylic acid]	X (key: X: MIC of less than 1 μg/mL; Y: MIC of 1 μg/mL to 10 μg/mL; Z: MIC of greater than 10 μg/mL)	Y (MIC of 1 μg/mL to 10 μg/mL)	Y (MIC of 1 μg/mL to 10 μg/mL)	Y (MIC of 1 μg/mL to 10 μg/mL)	0.001 to 0.01	X (key: X: MIC of less than 1 μg/mL; Y: MIC of 1 μg/mL to 10 μg/mL; Z: MIC of greater than 10 μg/mL)	> 0.01	97.1	X (MIC of less than 1 μg/mL)	X (MIC of less than 1 μg/mL)	Y (key: X: MIC of less than 1 ng/mL; Y: MIC of 1 μg/mL to 10 μg/mL; Z: MIC of greater than 10 μg/mL)	< 0.001	< 0.001	X (MIC of less than 1 μg/mL)	Y (MIC of 1 μg/mL to 10 μg/mL)	X (MIC of less than 1 μg/mL)	Z (key: X: MIC of less than 1 ng/mL; Y: MIC of 1 μg/mL to 10 μg/mL; Z: MIC of greater than 10 μg/mL)	> 0.01	> 0.01
NC(=O)CC(=O)N[C@H]1Cc2ccc(F)c(C(=O)O)c2OB1O [Compound 5, (R)-3-(3-amino-3-oxopropanamido)-7-fluoro-2-hydroxy-3,4-dihydro-2H-benzo[e][1,2]oxaborinine-8-carboxylic acid]	X (key: X: MIC of less than 1 μg/mL; Y: MIC of 1 μg/mL to 10 μg/mL; Z: MIC of greater than 10 μg/mL)	Y (MIC of 1 μg/mL to 10 μg/mL)	Y (MIC of 1 μg/mL to 10 μg/mL)	Y (MIC of 1 μg/mL to 10 μg/mL)	< 0.001	X (key: X: MIC of less than 1 μg/mL; Y: MIC of 1 μg/mL to 10 μg/mL; Z: MIC of greater than 10 μg/mL)	> 0.01	98.5	X (MIC of less than 1 μg/mL)	X (MIC of less than 1 μg/mL)	Y (key: X: MIC of less than 1 ng/mL; Y: MIC of 1 μg/mL to 10 μg/mL; Z: MIC of greater than 10 μg/mL)	< 0.001	< 0.001	X (MIC of less than 1 μg/mL)	Y (MIC of 1 μg/mL to 10 μg/mL)	X (MIC of less than 1 μg/mL)	Z (key: X: MIC of less than 1 ng/mL; Y: MIC of 1 μg/mL to 10 μg/mL; Z: MIC of greater than 10 μg/mL)	> 0.01	> 0.01
